# Source: patent EP4596574A1, “GLP-1/GCG/GIP TRIPLE-RECEPTOR AGONIST AND USE THEREOF” (Sunshine Lake Pharma Co., Ltd., priority 2022, dated 2024)
# Legend:
# Type in all cases: cell-based
# [1] = target: T1, GIPR (Homo sapiens, UniProt P48546); assay: In vitro cell activity, cAMP production in HEK293 cells expressing GIPR; settings: HEK293-GIPR cells, cAMP; read-out: GIPR (EC50)
# T1 construct: expressed in transfected cells; host or cells: HEK293 (HEK293-GIPR)
# T1 sequence (P48546 22-466): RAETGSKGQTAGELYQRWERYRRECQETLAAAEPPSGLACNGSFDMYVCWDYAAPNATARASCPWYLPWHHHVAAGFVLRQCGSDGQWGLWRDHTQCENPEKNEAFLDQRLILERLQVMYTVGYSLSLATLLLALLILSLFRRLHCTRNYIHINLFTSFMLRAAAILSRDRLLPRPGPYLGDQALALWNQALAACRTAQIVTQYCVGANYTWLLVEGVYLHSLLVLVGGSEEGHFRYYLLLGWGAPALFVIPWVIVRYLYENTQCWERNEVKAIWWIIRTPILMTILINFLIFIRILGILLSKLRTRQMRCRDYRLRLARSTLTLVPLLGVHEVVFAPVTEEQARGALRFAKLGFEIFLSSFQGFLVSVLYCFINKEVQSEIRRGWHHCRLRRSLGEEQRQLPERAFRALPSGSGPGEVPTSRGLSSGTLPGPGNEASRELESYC
# In short: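 cAMP accumulation is quantified by homogeneous TR-FRET (cAMP-d2 plus anti-cAMP cryptate) in GIPR-expressing HEK293 cells seeded from a 4×10^5 cells/mL suspension and treated with compound. The signal ratio is plotted against concentration and fitted to a four-parameter curve to give EC50.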
# [2] = target: T2, GCGR (Homo sapiens, UniProt P47871); assay: In vitro cell activity, cAMP production in HEK293 cells expressing GCGR; settings: HEK293-GCGR cells, cAMP; read-out: GCGR (EC50)
# T2 construct: expressed in transfected cells; host or cells: HEK293 (HEK293-GCGR)
# In short: (§1)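 Cells were plated at 4×10^5 cells/mL, and detection reagents (cAMP-d2, anti-cAMP cryptate, 1:1) were incubated 1 h at room temperature in the dark or overnight at 4 °C.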
# [3] = target: T3, GLP-1R (Homo sapiens, UniProt P43220); assay: In vitro cell activity, cAMP production in HEK293 cells expressing GLP-1R; settings: HEK293-GLP-1R cells, cAMP; read-out: GLP-1R (EC50)
# T3 construct: expressed in transfected cells; host or cells: HEK293 (HEK293-GLP-1R)
# In short: as §1
# T2 sequence (P47871 26-477, species assumed): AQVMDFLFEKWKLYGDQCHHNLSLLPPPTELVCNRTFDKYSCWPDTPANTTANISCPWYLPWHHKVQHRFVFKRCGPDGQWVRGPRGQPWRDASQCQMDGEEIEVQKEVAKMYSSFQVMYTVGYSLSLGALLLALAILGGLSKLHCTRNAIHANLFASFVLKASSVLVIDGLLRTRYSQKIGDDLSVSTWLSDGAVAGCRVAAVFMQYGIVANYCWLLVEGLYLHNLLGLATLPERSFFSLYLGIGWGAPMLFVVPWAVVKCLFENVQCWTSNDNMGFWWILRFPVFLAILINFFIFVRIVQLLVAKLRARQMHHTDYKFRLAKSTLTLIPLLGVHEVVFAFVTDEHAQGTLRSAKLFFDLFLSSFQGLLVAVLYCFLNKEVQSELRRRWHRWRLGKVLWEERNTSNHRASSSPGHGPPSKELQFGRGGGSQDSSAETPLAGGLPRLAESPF
# T3 sequence (P43220 24-463, species assumed): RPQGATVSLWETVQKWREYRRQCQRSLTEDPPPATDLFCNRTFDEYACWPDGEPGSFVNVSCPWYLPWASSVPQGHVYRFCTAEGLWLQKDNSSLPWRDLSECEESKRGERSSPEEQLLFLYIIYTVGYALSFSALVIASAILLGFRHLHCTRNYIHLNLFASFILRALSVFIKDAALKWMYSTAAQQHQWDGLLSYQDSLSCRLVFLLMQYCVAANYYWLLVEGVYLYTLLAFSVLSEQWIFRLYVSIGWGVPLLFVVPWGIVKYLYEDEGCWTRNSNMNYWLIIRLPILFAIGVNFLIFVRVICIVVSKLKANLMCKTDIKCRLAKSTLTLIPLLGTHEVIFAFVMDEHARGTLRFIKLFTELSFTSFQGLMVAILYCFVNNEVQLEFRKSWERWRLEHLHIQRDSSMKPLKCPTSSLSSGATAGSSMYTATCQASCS
SMILES,EC50 [1],EC50 [2],EC50 [3]
CC[C@H](C)[C@H](NC(=O)[C@H](Cc1ccccc1)NC(=O)[C@H](C)NC(=O)[C@H](CCC(N)=O)NC(=O)[C@H](CCC(N)=O)NC(=O)[C@H](C)NC(=O)[C@H](CCCCNC(=O)COCCOCCNC(=O)CC[C@H](NC(=O)CCCCCCCCCCCCCCCCC(=O)O)C(=O)O)NC(=O)[C@H](CCCNC(=N)N)NC(=O)[C@H](CC(=O)O)NC(=O)[C@H](CC(C)C)NC(=O)[C@H](CC(C)C)NC(=O)[C@@H](NC(=O)[C@H](CO)NC(=O)[C@H](Cc1ccc(O)cc1)NC(=O)[C@H](CC(=O)O)NC(=O)[C@H](CO)NC(=O)[C@@H](NC(=O)[C@](C)(Cc1ccccc1F)NC(=O)[C@@H](NC(=O)CNC(=O)[C@H](Cc1c[nH]cn1)NC(=O)C(C)(C)NC(=O)[C@@H](N)Cc1c[nH]cn1)[C@@H](C)O)[C@@H](C)O)[C@@H](C)CC)C(=O)N[C@@H](CCC(=O)O)C(=O)N[C@@H](Cc1ccc(O)cc1)C(=O)N[C@@H](CC(C)C)C(=O)N[C@@H](CC(C)C)C(=O)N[C@@H](C)C(=O)NCC(=O)NCC(=O)N1CCC[C@H]1C(=O)N[C@@H](CO)C(=O)N[C@@H](CO)C(=O)NCC(=O)N[C@@H](C)C(=O)N1CCC[C@H]1C(=O)N1CCC[C@H]1C(=O)N1CCC[C@H]1C(=O)N[C@@H](CO)C(=O)O [HEC-PT153],0.0169 nM,0.0126 nM,0.0752 nM
CC[C@H](C)[C@H](NC(=O)[C@H](CO)NC(=O)[C@H](Cc1ccc(O)cc1)NC(=O)[C@H](CC(=O)O)NC(=O)[C@H](CO)NC(=O)[C@@H](NC(=O)[C@](C)(Cc1ccccc1F)NC(=O)[C@@H](NC(=O)CNC(=O)[C@H](Cc1c[nH]cn1)NC(=O)C(C)(C)NC(=O)[C@@H](N)Cc1ccc(O)cc1)[C@@H](C)O)[C@@H](C)O)C(=O)N[C@@H](CC(C)C)C(=O)N[C@@H](CC(C)C)C(=O)N[C@@H](CC(=O)O)C(=O)N[C@@H](CCC(=O)O)C(=O)N[C@@H](CCCCNC(=O)COCCOCCNC(=O)CC[C@H](NC(=O)CCCCCCCCCCCCCCCCC(=O)O)C(=O)O)C(=O)N[C@@H](CCCNC(=N)N)C(=O)N[C@@H](CCC(N)=O)C(=O)NC(C)(C)C(=O)N[C@@H](CCC(=O)O)C(=O)N[C@@H](Cc1ccccc1)C(=O)N[C@H](C(=O)N[C@@H](CCC(=O)O)C(=O)N[C@@H](Cc1c[nH]c2ccccc12)C(=O)N[C@@H](CC(C)C)C(=O)N[C@@H](CC(C)C)C(=O)N[C@@H](C)C(=O)NCC(=O)NCC(=O)N1CCC[C@H]1C(=O)N[C@@H](CO)C(=O)N[C@@H](CO)C(=O)NCC(=O)N[C@@H](C)C(=O)N1CCC[C@H]1C(=O)N1CCC[C@H]1C(=O)N1CCC[C@H]1C(=O)N[C@@H](CO)C(N)=O)[C@@H](C)CC [HEC-PT109],0.052 nM,0.707 nM,0.14 nM
CC[C@H](C)[C@H](NC(=O)[C@H](Cc1ccccc1)NC(=O)[C@H](C)NC(=O)[C@H](CCCNC(=N)N)NC(=O)[C@H](C)NC(=O)[C@H](CCCNC(=N)N)NC(=O)[C@H](CCCCNC(=O)COCCOCCNC(=O)CC[C@H](NC(=O)CCCCCCCCCCCCCCCCCCC(=O)O)C(=O)O)NC(=O)[C@H](CCC(=O)O)NC(=O)[C@H](CC(=O)O)NC(=O)[C@H](CC(C)C)NC(=O)[C@H](CC(C)C)NC(=O)[C@@H](NC(=O)[C@H](CO)NC(=O)[C@H](Cc1ccc(O)cc1)NC(=O)[C@H](CC(=O)O)NC(=O)[C@H](CO)NC(=O)[C@@H](NC(=O)[C@](C)(Cc1ccccc1F)NC(=O)[C@@H](NC(=O)CNC(=O)[C@H](CCC(N)=O)NC(=O)C(C)(C)NC(=O)[C@@H](N)Cc1ccc(O)cc1)[C@@H](C)O)[C@@H](C)O)[C@@H](C)CC)C(=O)N[C@@H](CCC(=O)O)C(=O)N[C@@H](Cc1ccc(O)cc1)C(=O)N[C@@H](CC(C)C)C(=O)N[C@@H](CC(C)C)C(=O)N[C@@H](C)C(=O)NCC(=O)NCC(=O)N1CCC[C@H]1C(=O)N[C@@H](CO)C(=O)N[C@@H](CO)C(=O)NCC(=O)N[C@@H](C)C(=O)N1CCC[C@H]1C(=O)N1CCC[C@H]1C(=O)N1CCC[C@H]1C(=O)N[C@@H](CO)C(=O)O [HEC-PT88],0.485 nM,0.035 nM,0.13 nM
